# Measured values: ChEMBL document CHEMBL5230115, “Bioactive pyrrole-based compounds with target selectivity” (Eur J Med Chem, 2020)
# Tests used:
# PC-3 = test: Antiproliferative activity against human PC-3 cells assessed as cell growth inhibition measured after 24 hrs by MTT assay; format: functional, cell-based; conditions: PC-3, 24 h
# A549 [1] = test: Antiproliferative activity against human A549 cells assessed as cell growth inhibition measured after 24 hrs by MTT assay; format: functional, cell-based; conditions: A549, 24 h
# A549 [2] = test: Antiproliferative activity against human A549 cells assessed as cell growth inhibition at 5 uM in presence of etoposide by CellTiter-Glo luminescent assay relative to control; format: functional; design: scale not given: the % may be the effect or the level left
# A549 [3] = test: Antiproliferative activity against human A549 cells assessed as cell growth inhibition at 5 uM in presence of doxorubicin by CellTiter-Glo luminescent assay relative to control; format: functional; design: scale not given: the % may be the effect or the level left
# [4] = biological target: Vascular endothelial growth factor receptor 2 (Homo sapiens, UniProt P35968); test: Inhibition of VEGFR2 (unknown origin) at 25 nM using Poly(Glu, Tyr) as substrate by Kinase-Glo plus luminescent kinase assay
# [5] = biological target: Mitogen-activated protein kinase 3 (Homo sapiens) (UniProt P27361); test: Inhibition of ERK1 (unknown origin) at 25 nM relative to control
# Mitogen-activated protein kinase 3 (Homo sapiens), sequence (P27361 whole entry): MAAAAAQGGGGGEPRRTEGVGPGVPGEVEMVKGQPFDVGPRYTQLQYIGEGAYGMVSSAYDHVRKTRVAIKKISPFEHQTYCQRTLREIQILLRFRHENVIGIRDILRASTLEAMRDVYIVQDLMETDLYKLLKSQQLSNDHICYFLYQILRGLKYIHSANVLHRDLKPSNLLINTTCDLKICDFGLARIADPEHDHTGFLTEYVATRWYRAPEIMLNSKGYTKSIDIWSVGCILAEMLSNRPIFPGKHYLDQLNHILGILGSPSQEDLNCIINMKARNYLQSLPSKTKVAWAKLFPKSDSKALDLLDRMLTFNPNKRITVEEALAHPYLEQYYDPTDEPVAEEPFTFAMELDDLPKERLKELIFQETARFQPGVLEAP
# Vascular endothelial growth factor receptor 2, sequence (P35968 whole entry): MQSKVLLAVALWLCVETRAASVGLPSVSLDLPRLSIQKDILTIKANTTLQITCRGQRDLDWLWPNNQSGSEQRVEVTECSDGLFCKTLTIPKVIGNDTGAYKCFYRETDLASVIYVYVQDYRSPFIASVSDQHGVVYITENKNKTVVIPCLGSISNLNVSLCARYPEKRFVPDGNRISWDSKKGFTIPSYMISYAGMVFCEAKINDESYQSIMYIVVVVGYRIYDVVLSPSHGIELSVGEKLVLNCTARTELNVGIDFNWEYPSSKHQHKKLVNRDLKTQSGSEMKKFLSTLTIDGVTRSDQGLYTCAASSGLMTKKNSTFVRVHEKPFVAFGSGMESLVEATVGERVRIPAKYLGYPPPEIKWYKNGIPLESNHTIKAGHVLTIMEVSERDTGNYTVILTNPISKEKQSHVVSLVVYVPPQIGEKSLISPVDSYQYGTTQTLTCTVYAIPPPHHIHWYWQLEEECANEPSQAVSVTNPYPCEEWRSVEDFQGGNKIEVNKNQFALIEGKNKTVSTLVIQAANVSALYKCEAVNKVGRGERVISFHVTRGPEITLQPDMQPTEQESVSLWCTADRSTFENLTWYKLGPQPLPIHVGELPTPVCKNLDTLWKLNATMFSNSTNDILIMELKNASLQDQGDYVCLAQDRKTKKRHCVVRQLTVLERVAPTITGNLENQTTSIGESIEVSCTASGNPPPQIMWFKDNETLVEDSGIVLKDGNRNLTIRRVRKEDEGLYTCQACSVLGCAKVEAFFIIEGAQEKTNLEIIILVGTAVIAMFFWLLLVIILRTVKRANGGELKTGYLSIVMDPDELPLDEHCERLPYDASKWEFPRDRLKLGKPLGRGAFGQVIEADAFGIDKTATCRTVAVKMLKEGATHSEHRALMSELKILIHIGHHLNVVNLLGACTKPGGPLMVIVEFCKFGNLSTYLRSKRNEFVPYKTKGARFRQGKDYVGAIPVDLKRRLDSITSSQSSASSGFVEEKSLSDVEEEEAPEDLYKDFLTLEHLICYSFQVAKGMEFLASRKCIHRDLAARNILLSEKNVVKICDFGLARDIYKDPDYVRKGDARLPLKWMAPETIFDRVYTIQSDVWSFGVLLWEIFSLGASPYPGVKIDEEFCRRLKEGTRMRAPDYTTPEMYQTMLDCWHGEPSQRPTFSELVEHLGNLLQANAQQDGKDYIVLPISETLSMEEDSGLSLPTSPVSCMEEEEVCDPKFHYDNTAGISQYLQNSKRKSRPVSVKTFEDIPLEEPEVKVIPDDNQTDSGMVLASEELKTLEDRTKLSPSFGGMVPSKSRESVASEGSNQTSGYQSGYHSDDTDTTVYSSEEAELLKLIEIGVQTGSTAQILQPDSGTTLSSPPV
smiles,measurement,setting,value
Cn1ccc2c(Nc3cccc(Br)c3)nc(NC(=O)Nc3ccc(Cl)c(C(F)(F)F)c3)nc21,IC50,PC-3,1.04 µM
Cn1ccc2c(Nc3ccc(F)c(Cl)c3)nc(NC(=O)Nc3cccc(C(F)(F)F)c3)nc21,IC50,A549 [1],0.35 µM
Cn1ccc2c(Nc3ccc(Cl)cc3)nc(NC(=O)Nc3ccc(F)cc3)nc21,IC50,A549 [1],1.56 µM
COc1ccc(-c2nc3ccc(C(=O)Nc4cn(C)c(C(=O)Nc5cc(C(=O)NCCCN(C)C)n(CCCN)c5)n4)cc3[nH]2)cc1,Activity,A549 [2],50%
same,Activity,A549 [3],22%
Cn1ccc2c(Nc3cccc(Br)c3)nc(NC(=O)Nc3ccc(F)c(C(F)(F)F)c3)nc21,IC50,A549 [1],1.48 µM
Cc1cccc(NC(=O)Nc2ccc(Oc3ncnc4[nH]c(C)c(C)c34)cc2)c1,IC50,[4],0.0136 µM
same,inhibition,[5],50%
Cc1cccc(NC(=O)Nc2ccc(Nc3ncnc4[nH]c(C)c(C)c34)cc2)c1,IC50,[4],0.0119 µM
same,inhibition,[5],50%
